Data as given in patent publication US20260242843A1, “ASSAY SYSTEM FOR […] ANTIVIRAL AGENT USING INHIBITION OF VIRUS-DERIVED PROTEASE AS INDICATOR” (TOYAMA PREFECTURAL UNIVERSITY, priority 2023, published 2026).

Key:
IAPV protease = assay: Measurement of IAPV protease activity using purified enzyme (fluorescent peptide substrate); assay type: biochemical, Israeli acute paralysis virus (IAPV); conditions: inhibitors at final concentration of 1 mM, pre-incubated at 37° C. for 1 hour; fluorescence in absence of inhibitors = 100%
Protocol: RNA was extracted from the midgut of virus-infected honey bees using ISOGEN II (Nippon Gene Co., Ltd.), and the extracted RNA was reverse-transcripted using PrimeScript RT reagent Kit (Takara) to obtain midgut-derived cDNA. Subsequently, the midgut-derived cDNA was subjected to PCR reaction (30 cycles of 98° C. for 30 seconds, 60° C. for 30 seconds, and 68° C. for 2 minutes) using KOD FX Neo (TOYOBO Co., Ltd.) with IAPV Protease Primer-F1 (SEQ ID NO: 59) and IAPV Protease Primer-R (SEQ ID NO: 60). As a result, a cDNA fragment of IAPV protease was obtained, consisting of the base sequence of SEQ ID NO: 57 encoding the amino acid sequence of SEQ ID NO: 58. The cDNA fragment of the IAPV protease was subjected to restriction enzyme treatment with BamHI and HindIII. The expression vector pET21a (Merck) was also subjected to restriction enzyme treatment with BamHI and HindIII. The restriction enzyme-treated cDNA fragment of the IAPV protease and the restriction enzyme-treated pET21a DNA fragment were subjected to a ligation reaction at 16° C. for 1 hour using Ligation High Ver. 2 (TOYOBO Co., Ltd.) to join the vector and the cDNA fragment, and the ligation product was used to transform E. coli. Colony PCR was performed, and an expression vector containing the cDNA fragment of the IAPV protease was obtained. E. coli Rosseta-gami B (Merck) was transformed with the expression vector of the IAPV protease. A preculture was prepared in 50 ml of LB medium containing ampicillin, followed by subculturing in 500 ml of LB medium containing ampicillin. Then, the culture was grown until the absorbance at 600 nm reached 0.5, at which point isopropyl β-D-thiogalactopyranoside (IPTG) was added to a final concentration of 1 mM. The culture was then incubated at 15° C. for 24 hours. The culture was centrifuged (8000 rpm, 10 minutes, 4° C.) to collect E. coli cells. The collected E. coli cells were dissolved in 10 ml of a sonication buffer (50 mM Tris-HCl, pH 8.0; 50 mM NaCl; 1 mM EDTA; 1 mM DTT), and disrupted by ultrasonic disruption (sonication). The disruption solution was centrifuged (12000 rpm, 10 minutes, 4° C.) to obtain a supernatant of this bacterial cell disruption solution. The IAPV protease was then purified from the resulting supernatant to yield a purified protein solution. Purification was carried out by cation exchange chromatography using HiPrep SP XL 16/10 (Cytiva) with a 20 mM Tris-HCl (pH 7.5) buffer and a 20 mM Tris-HCl (pH 7.5) buffer containing 1 M NaCl, and by gel filtration chromatography using HiLoad 16/600 Superdex 200 (Cytiva) with a 50 mM phosphate buffer (pH 7.0) containing 0.15 M NaCl.
As a substrate for the measurement of IAPV protease activity, either Dnp-PNDIV DVTMQK(Nma)-NH2 or Nma-[…] (Dnp)-NH2, in which a peptide was linked to a fluorescent substrate, was synthesized and used. When the activity measurement substrate is cleaved by the protease, it emits fluorescence. The activity measurement substrate was prepared at a concentration of 20 μM in an assay buffer (50 mM citric acid buffer, pH 6.0; 150 mM NaCl; 1 mM EDTA; 1 mM DTT). The purified protein solution of the IAPV protease obtained in Example 10 was used as the enzyme solution. 50 μl of the assay buffer containing the activity measurement substrate was mixed with 50 μl of the enzyme solution, and the mixture was reacted at 37° C. for 30 minutes in a 96-well black plate, in the presence or absence of various inhibitors listed in Table 4. Fluorescence intensity was then measured using a TECAN fluorescence plate reader (Tecan Japan Co., Ltd.) at an excitation wavelength of 340 nm and a fluorescence emission wavelength of 440 nm. The various inhibitors were prepared at a final concentration of 1 mM and pre-incubated at 37° C. for 1 hour prior to the enzymatic reaction.

[1] = test system: virus-infected honey bees; assay: Suppression of individual honey bee mortality by agent administration (aseptic in vivo agent evaluation rearing method); conditions: for viability compared to the control group: 100 μM in 50% sucrose solution, virus-infected honey bee population No. 2, FIG. 15
Protocol: A new aseptic in vivo agent evaluation rearing method for honey bees was established. Incubators and rearing boxes were sterilized with 70% ethanol after cleaning. Each hive box was populated with 30 to 35 honey bees. The honey bees were fed with a 50% sucrose solution (aseptically dissolved in sterile water) and a 50% sucrose solution containing pollen dissolved therein. The rearing temperature was maintained at 30° C. The 50% sucrose solutions were replaced daily, and the number of individual honey bees was measured at each replacement. Agents were administered dissolved in the 50% sucrose solutions. At the time when the viability had decreased to 50% or less of the initial level, total RNA was collected from the surviving individuals, and histochemical analyses were performed on the midgut and other tissues. Pharmacological analyses were conducted using the collected RNA, tissues, and blood.
E-64 ([(2S,3S)-3-carboxyoxirane-2-carbonyl]-L-leucine (4-guanidinobutyl)amide hemihydrate, manufactured by PEPTIDE INSTITUTE, INC.) was dissolved in a 50% sucrose solution at concentrations of 200 μM, 100 μM, and 50 μM. The resulting solutions were administered to honey bees in the honey bee populations Nos. 2 and 5, in which viral infection had been observed. Only 50% sucrose was administered to a control group (None). The E-64-containing solutions were replaced daily, and changes in the number of individual honey bees were measured at each replacement. FIGS. 9 and 10 show the results. Rearing was conducted using the aseptic in vivo agent evaluation rearing method, which has been described above.
E-64c (manufactured by PEPTIDE INSTITUTE, INC.) or E-64d (manufactured by PEPTIDE INSTITUTE, INC.) was dissolved in a 50% sucrose solution at a concentration of 100 μM. The resulting solutions were administered to honey bees in the honey bee population No. 2, in which viral infection had been observed. […] The solution containing E-64c or E-64d was replaced daily, and changes in the number of individual honey bees were measured at each replacement. […]

[2] = test system: fusion protein of Maltose Binding Protein (MBP)-IAPV protease; assay: IAPV protease activity measurement using crude enzyme solution of expressed MBP-IAPV protease fusion protein; assay type: biochemical, Israeli acute paralysis virus (IAPV); conditions: in the presence of E-64, absence of E-64 = 100%
Protocol: Midgut-derived cDNA was obtained from virus-infected honey bees in the same manner as in Example 10 and then subjected to PCR reaction (30 cycles of 98° C. for 30 seconds, 60° C. for 30 seconds, and 68° C. for 2 minutes) using KOD FX Neo (TOYOBO Co., Ltd.) with IAPV Protease Primer-F2 (SEQ ID NO: 61) and IAPV Protease Primer-R (SEQ ID NO: 60). As a result, a cDNA fragment of IAPV protease was obtained, consisting of the base sequence of SEQ ID NO: 57 encoding the amino acid sequence of SEQ ID NO: 58. The cDNA fragment of the IAPV protease was subjected to restriction enzyme treatment with BamHI and HindIII. […] Then, the culture was grown until the absorbance at 600 nm reached 0.5, at which point IPTG was added to a final concentration of 1 mM. […]
Subsequently, using a crude enzyme solution of the expressed fusion protein of IAPV protease as the enzyme solution, the IAPV protease activity was measured using the same method as in Example 11, in the presence or absence of E-64.
The fluorescence intensity measured in the absence of E-64 was reduced by the addition of E-64. When the fluorescence intensity measured in the absence of E-64 is defined as 100% relative activity, the relative activity of IAPV protease calculated from the fluorescence intensity measured in the presence of E-64 was 9% (FIG. 14). […]

[3] = test system: virus-infected honey bees; assay: Recovery from intestinal tract damage in honey bees (BPB administration test); assay type: in vivo; conditions: E-64 100 μM in 50% sucrose, reared 10 days; BPB 10 mg/ml for 24 hours; FIG. 13
Protocol: Virus-infected and uninfected honey bees were reared for 10 days while receiving 50% sucrose. During the rearing period, Bromophenol Blue (BPB) (FUJIFILM Wako Pure Chemical Corporation) was dissolved in a 50% sucrose solution at a concentration of 10 mg/ml and administered to the virus-infected and uninfected honey bees for 24 hours. When the viability of the virus-infected group had decreased to approximately 50%, relative to the number of individual honey bees before rearing set to 100%, BPB was administered to each group of honey bees. After BPB administration, blood was collected from honey bees (≥30 individuals), and the concentration of BPB in the blood was measured by absorbance at 500 nm using a microvolume spectrophotometer, NanoDrop One (ThermoFisher Scientific).
Virus-infected honey bees were divided into a control group (None) to which 50% sucrose was administered, and an administered group (E-64) to which a solution of E-64 (PEPTIDE INSTITUTE, INC.) dissolved at 100 μM in 50% sucrose was administered. The honey bees were reared for 10 days. […] After BPB administration, blood was collected from honey bees (≥30 individuals), and the concentration of BPB in the blood was measured by absorbance at 500 nm using a microvolume spectrophotometer, NanoDrop One (ThermoFisher Scientific).

| Molecule | Relative Activity (%) of IAPV protease (IAPV protease) [%] | other results |
| --- | --- | --- |
| CCCNC(=O)[C@H]1O[C@@H]1C(=O)N[C@H](C(=O)N1CCC[C@H]1C(=O)OC)[C@@H](C)CC [CA074 methyl ester, [(2S,3S)-3-propylcarbamoyloxirane-2-carbonyl]-L-isoleucyl-L-proline methyl ester] | 32 | – |
| CCCNC(=O)[C@H]1O[C@@H]1C(=O)N[C@H](C(=O)N1CCC[C@H]1C(=O)O)[C@@H](C)CC [CA074, [(2S,3S)-3-propylcarbamoyloxirane-2-carbonyl]-L-isoleucyl-L-proline] | 4 | – |
| CC(C)CCNC(=O)[C@H](CC(C)C)NC(=O)[C@H]1O[C@@H]1C(=O)O [E-64c, [(2S,3S)-3-carboxyoxirane-2-carbonyl]-L-leucine (3-methylbutyl)amide] | 22 | viability compared to the control group [1]: higher viability compared to the control group |
| CCOC(=O)[C@H]1O[C@@H]1C(=O)N[C@@H](CC(C)C)C(=O)NCCC(C)C [E-64d, [(2S,3S)-3-ethoxycarbonyloxirane-2-carbonyl]-L-leucine (3-methylbutyl)amide] | 23 | viability compared to the control group [1]: higher viability compared to the control group |
| CCOC(=O)[C@H]1O[C@@H]1C(=O)N[C@@H](CC(C)C)C(=O)NCCc1ccc(O)cc1 [JPM-OEt] | 17 | – |
| O=C(O)c1cc2ccccc2s1 [TNCA, benzo[b]thiophene-2-carboxylic acid] | 71 | – |
| O=C(NC1CC1)C(=O)C(Cc1ccccc1)NC(=O)[C@H]1CCC(=O)N1Cc1ccccc1 (some centres unmarked) [alicapistat] | 22 | – |
| Cc1nc(-c2ccccc2F)c(C(=O)NC(Cc2ccccc2)C(=O)C(N)=O)o1 (centres unmarked) [dazcapistat] | 29 | – |
| [(2S,3S)-3-carboxyoxirane-2-carbonyl]-L-leucine (4-guanidinobutyl)amide hemihydrate [E-64] | 5 | relative activity of IAPV protease [2]: 9%; individual honey bee mortality (viability) ([1]; E-64 at 200 μM, 100 μM, 50 μM in 50% sucrose solution, virus-infected honey bee populations Nos. 2 and 5, FIGS. 9 and 10): suppressed individual honey bee mortality; concentration of BPB in the blood (absorbance at 500 nm) [3]: reduced the concentration of BPB in the blood |
